Data as given in the supplement of paper PMC10307832.

How the values were obtained:
Assay in all cases: relative viability (nuclei count vs DMSO), 5 days (fraction); higher = more cells survive
[1] = compound: O=C1NC(=O)[C@@H](c2cn3c4c(cccc24)CCC3)[C@@H]1c1c[nH]c2ccccc12 [Tivantinib] + Cc1cc(Nc2cc(N3CCN(C)CC3)nc(Sc3ccc(NC(=O)C4CC4)cc3)n2)n[nH]1 [Tozasertib] (partner 0.1 µM)
How it was run: (§1)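 Each reported value is a median over duplicate plates. It expresses relative viability: treated-well nuclei count divided by vehicle-well nuclei count. Lung cancer cell lines in 1536-well plates were dosed by pin tool a day after seeding, alone with one drug or with a fixed anchor-drug dose plus five library-drug doses (not always all listed) in √10 steps, and nuclei were counted after 5 days.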

[2] = compound: CC1(COc2ccc3c(c2)ncn3-c2ccc3cccc(N4CCC(N)CC4)c3n2)COC1 [Crenolanib] + O=C(c1cc(Cc2n[nH]c(=O)c3ccccc23)ccc1F)N1CCN(C(=O)C2CC2)CC1 [Olaparib] (partner 8 µM)
How it was run: as §1

[3] = compound: CC1(COc2ccc3c(c2)ncn3-c2ccc3cccc(N4CCC(N)CC4)c3n2)COC1 [Crenolanib] + CS(=O)(=O)CCNCc1ccc(-c2ccc3ncnc(Nc4ccc(OCc5cccc(F)c5)c(Cl)c4)c3c2)o1 [Lapatinib] (partner 2 µM)
How it was run: as §1

[4] = compound: O=C1NC(=O)[C@@H](c2cn3c4c(cccc24)CCC3)[C@@H]1c1c[nH]c2ccccc12 [Tivantinib] + Nc1ncn([C@H]2C[C@H](O)[C@@H](CO)O2)c(=O)n1 [Decitabine] (partner 2 µM)
How it was run: as §1

| Cell Line | relative viability ([1]; first compound 0.01 µM) | relative viability ([1]; first compound 0.03162 µM) | relative viability ([1]; first compound 0.1 µM) | relative viability ([1]; first compound 0.3162 µM) | relative viability ([2]; first compound 0.01 µM) | relative viability ([2]; first compound 0.03162 µM) | relative viability ([2]; first compound 0.1 µM) | relative viability ([2]; first compound 0.3162 µM) | relative viability ([2]; first compound 1 µM) | relative viability ([3]; first compound 0.01 µM) | relative viability ([3]; first compound 0.03162 µM) | relative viability ([3]; first compound 0.1 µM) | relative viability ([3]; first compound 0.3162 µM) | relative viability ([3]; first compound 1 µM) | relative viability ([4]; first compound 0.01 µM) | relative viability ([4]; first compound 0.03162 µM) | relative viability ([4]; first compound 0.1 µM) | relative viability ([4]; first compound 0.3162 µM) |
| --- | --- | --- | --- | --- | --- | --- | --- | --- | --- | --- | --- | --- | --- | --- | --- | --- | --- | --- |
| HCC-827 | 0.388 | 0.402 | 0.48 | 0.312 | 0.702 | 0.659 | 0.655 | 0.634 | 0.677 | 0.163 | 0.188 | 0.16 | 0.217 | 0.191 | 0.312 | 0.396 | 0.316 | – |
| HOP-62 | 0.383 | 0.352 | 0.385 | 0.377 | 0.398 | 0.192 | 0.45 | 0.387 | 0.33 | 0.869 | 1 | 0.991 | 1.08 | 0.834 | 0.173 | 0.191 | 0.196 | 0.242 |
| IA-LM | – | – | – | – | 0.847 | 0.907 | 0.88 | 0.817 | 0.883 | 0.741 | 0.951 | 0.732 | 0.978 | 1.51 | – | – | – | – |
| LC-2-ad | 0.455 | 0.409 | 0.393 | 0.313 | 0.65 | 0.704 | 0.728 | 0.74 | 0.65 | 1 | 0.922 | 0.982 | 1.05 | 0.992 | 0.858 | 0.838 | 0.815 | 0.804 |
| LCLC-97TM1 | 0.25 | 0.218 | 0.25 | 0.218 | 0.395 | 0.53 | 0.383 | 0.42 | 0.412 | 0.895 | 0.861 | 0.748 | 0.959 | 0.784 | 0.232 | 0.226 | 0.226 | 0.211 |
| LCLC-103H | 0.426 | 0.493 | 0.474 | 0.374 | 0.751 | 0.759 | 0.68 | 0.698 | 0.712 | – | – | – | – | – | 0.658 | 0.762 | 0.731 | 0.708 |
| LK-2 | 0.177 | – | 0.199 | 0.191 | 0.837 | 0.572 | 0.655 | 1.06 | 0.585 | 0.942 | 0.812 | 0.935 | 0.938 | 0.851 | 0.233 | 0.196 | 0.262 | 0.29 |
| LOU-NH91 | 0.663 | 0.675 | 0.593 | 0.537 | 0.943 | 0.88 | 0.837 | 0.971 | 0.905 | 0.798 | 0.742 | 0.774 | 0.737 | 0.772 | 0.825 | 0.805 | 0.803 | 0.669 |
| LU99A | 0.261 | 0.276 | 0.266 | 0.291 | 0.274 | 0.283 | 0.281 | 0.22 | 0.27 | 1.08 | 0.988 | 1 | 1.03 | 0.955 | 0.869 | 0.853 | 0.865 | 0.849 |
| LXF-289 | 0.176 | 0.129 | 0.202 | 0.204 | 1.08 | 0.954 | 1 | 1.16 | 1.08 | 0.887 | 0.918 | 0.889 | 0.908 | 0.838 | 0.37 | 0.375 | 0.367 | 0.367 |
| NCI-H23 | 0.447 | 0.359 | 0.423 | 0.308 | 0.311 | 0.278 | 0.282 | 0.347 | 0.341 | 1.04 | 1.16 | 0.977 | 1.22 | 0.992 | 0.333 | 0.294 | 0.31 | 0.318 |
| NCI-H322M | 0.483 | 0.458 | 0.502 | – | 0.741 | 0.779 | 0.651 | 0.806 | 0.795 | 0.613 | 0.64 | 0.543 | 0.567 | 0.587 | 0.615 | 0.703 | 0.715 | – |
| NCI-H441 | 0.587 | 0.655 | 0.552 | 0.474 | 0.602 | 0.524 | 0.608 | 0.56 | 0.535 | – | – | – | – | – | 0.22 | 0.261 | 0.139 | 0.239 |
| NCI-H522 | 0.636 | 0.463 | 0.536 | 0.491 | 0.581 | 0.676 | 0.639 | 0.591 | 0.62 | – | – | – | – | – | 0.715 | 0.551 | 0.633 | 0.535 |
| NCI-H1299 | – | – | – | – | 0.965 | 0.921 | 0.916 | 0.978 | 0.935 | 0.928 | 1.01 | 0.905 | 0.862 | 0.887 | – | – | – | – |
| NCI-H1563 | – | – | – | – | – | – | – | – | – | 0.818 | 0.97 | 0.937 | 0.998 | 0.849 | – | – | – | – |
| NCI-H1623 | 0.388 | 0.424 | 0.441 | – | – | – | – | – | – | – | – | – | – | – | – | – | – | – |
| NCI-H1648 | 0.71 | 0.385 | 0.425 | – | 1.08 | – | 0.717 | 0.899 | 0.853 | – | – | – | – | – | – | 0.507 | 0.513 | 0.397 |
| NCI-H1703 | – | – | – | – | 0.376 | 0.383 | 0.175 | 0.242 | 0.192 | 1.14 | 0.713 | 0.262 | 0.257 | 0.189 | – | – | – | – |
| NCI-H1792 | – | – | – | – | 0.439 | 0.397 | 0.334 | 0.757 | 0.384 | 0.977 | 0.851 | 0.835 | 1.09 | 0.874 | 0.535 | – | 0.473 | 0.505 |
| NCI-H2228 | – | 0.356 | 0.221 | 0.214 | 0.76 | 0.833 | 0.684 | 1.13 | 0.686 | 0.964 | 0.876 | 0.969 | 1.27 | 1.28 | – | – | – | – |
| NCI-H2342 | 0.556 | 0.51 | 0.51 | 0.394 | 0.445 | 0.484 | 0.411 | 0.445 | 0.494 | – | – | – | – | – | 0.845 | 0.789 | 0.699 | 0.624 |
| SW 900 | 0.642 | 0.577 | 0.636 | 0.576 | 0.925 | – | 0.8 | 0.959 | 0.979 | – | – | – | – | – | 0.461 | 0.46 | 0.482 | 0.443 |
